Results from US20180008592A1, “TREATMENT OF UREMIC PRURITUS” (TREVI THERAPEUTICS, INC., priority 2016, published 2018).

What was measured:
[1] = test system: hemodialysis patients with uremic pruritus who completed the Example 2 study; assay: Phase 2/3 Open Label Extension Study (up to 24 weeks); format: in vivo, human
Text: This clinical study was a Phase 2/3 Open Label Extension Study of the randomized, double-blind, 3-parallel arm, placebo controlled dose ranging study described in Example 2. All those subjects who were randomized, and then completed Example 2 study, were eligible to participate in the Extension Study.
The primary endpoint was a description of the overall incidence and nature of Treatment-Emergent AEs (TEAES) with the secondary endpoint a description of the incidence and nature of TEAEs during Treatment Weeks 4-24. Exploratory efficacy endpoints related to collecting data on the PRO instruments (NRS, Skindex-10, Itch MOS Sleep, HADS, PADS), the same instruments evaluated in Example 2.
Of the 373 patients that were randomized to the study of Example 2, 184 subjects both completed the study of Example 2 and enrolled into Extension Study. 167 subjects who enrolled into Extension Study entered the Treatment Period of the study and were exposed to nalbuphine HCl ER tablet administration and are the basis of the study safety population analysis. 17 subjects who were enrolled in the Extension were never dosed, they were categorized as screen failures and they are not part of the analysis.
Patients in Extension Study were titrated over a dose range of 30 mg QD to 120 mg BID based on tolerability and efficacy. The selected dose range was based on Example 2 study whereby patients were titrated from a 30 mg QD dose either to 60 mg BID or a 120 mg BID dose. The highest dose proposed was 120 mg BID (240 mg daily dose), and was well below the highest recommended daily treatment of 160 mg IV (equivalent to 960 mg oral) for the current marketed product.
The study duration for each patient was up to 26 weeks, with up to 24 weeks on study drug. The Extension Study consisted of a Treatment Period (that was followed by a Washout Safety Follow-up Period) and an Observation Period. Patients either entered directly into a drug Treatment Period (NRS >2) or a no-drug Observation Period (NRS ≦2) based on their reported NRS scores on the first Visit (Visit 1a). For up to 12 Extended Screening weeks, patients in the no-drug Observation Period could have also transitioned into the drug Treatment Period if their NRS increased to NRS >2. All patients entering the Treatment Period, whether immediately upon study entry or following a period of time in the Observation Period, were titrated to a dose ranging between 30 mg up to 120 mg BID, the highest dose tested in Example 2.
The total study duration for any individual patient was up to 26 weeks. […] For patients who entered the Treatment Period from the Observation Period, the total amount of time spent in the combined two periods of the study could not exceed 24 weeks.

[2] = test system: renally impaired patients on hemodialysis with moderate or severe uremic pruritus; assay: Same trial: Hospital Anxiety and Depression Scale (HADS); format: in vivo, human
Text: The primary endpoint was the change from Baseline to the Evaluation Period (Study weeks 7 and 8) in the modified intent-to-treat population. Quality of life-related secondary endpoints included change from Day 1 to the Evaluation Period in itching-related quality of life (using the Skindex-10 (FIG. 8)) and itching-related sleep disruption (using the Itch Medical Outcomes Study [Itch MOS] (FIG. 9), SLP-9). The Hospital Anxiety and Depression Score (HADS) used as a general measure of anxiety and depression. All patient-reported outcomes measures were selected based on their prior validation in uremic pruritus patients specifically or in the dialysis population more generally.
The primary and quality of life secondary endpoint analyses used a mixed model repeated measures ANCOVA with the main effects of treatment and site and baseline worst itch NRS score as the covariate. The model included time (i.e. Visit) as a factor variable and treatment*time (with placebo as the reference category) with an unstructured covariance structure for repeated measures. Data from all post-baseline visits were used to fit the model. For the primary endpoint, the baseline value was defined as the mean of worst itch daytime and nighttime NRS scores used for satisfying the protocol inclusion criterion #5 (mean worst itching NRS≧4.5 based on a total of 3 daytime and 3 nighttime measurements from 3 dialysis visits). For the secondary endpoints, the baseline value was based on a measurement taken on Study Day 1, prior to randomization. A pre-specified step-down procedure was used. The first comparison was of nalbuphine 120 mg BID dose vs. placebo. If the first comparison was significant at the p<0.05 level, then the comparison between the nalbuphine 60 mg BID dose vs. placebo would be conducted. Patients with a 15% or greater response in worst itch NRS were analyzed using a Cochran-Mantel-Haenszel (CMH) test. Analysis of the Itch MOS utilized the SLP-9 scoring algorithm.
In the first 2 weeks of treatment, patients were blindly force-titrated to their assigned target dose, with the patients in the active arms reaching a dose of 60 mg BID (NAL 60) after the first week and, for those in the high dose group, to 120 mg BID (NAL 120) after the second week. Study drug was administered in blister cards containing the labeled morning and evening doses for each day of the week. Subsequently, patients continued stable doses of the study drug for an additional 6 weeks and were then washed off study drug and followed for another 2 weeks for itching intensity and safety. […]

[3] = safety population, titrated 30 mg QD to 120 mg BID, up to 24 weeks, most pronounced with baseline NRS ≧7

In the case of Cl.Oc1ccc2c3c1O[C@H]1[C@@H](O)CC[C@@]4(O)[C@@H](C2)N(CC2CCC2)CC[C@]314 [Nalbuphine, 17-(cyclobutylmethyl)-4,5α-epoxymorphinian-3,6α, 14-triol, hydrochloride], the “Mean Skindex-10 by week” value [1, 3] is reported as “decreased from baseline to all measured time points”, the “Mean worst itch NRS by week” value [1, 3] is reported as “decreased from baseline to all measured time points” and the safety findings ([1]; treatment period up to 24 weeks) is reported as “consistent with the known safety profile of nalbuphine”. The “tolerance to the anti-pruritic effects” value ([1]; up to 24 weeks) was “do not develop a tolerance”, the “HADS Anxiety Subscale (0-21), change from Baseline to the Evaluation Period, mean (SD)” value ([2]; 60 mg BID, N = 128) was −1.72 (3.0) and the “HADS Depression Subscale (0-21), change from Baseline to the Evaluation Period, mean (SD)” value ([2]; 60 mg BID, N = 128) was −0.68 (3.1). For the same compound, the “HADS Anxiety Subscale (0-21), change from Baseline to the Evaluation Period, mean” value ([2]; 120 mg BID, N = 120) was −1.64 and the “HADS Depression Subscale (0-21), change from Baseline to the Evaluation Period, mean” value ([2]; 120 mg BID, N = 120) was −1.03.
